Experimental data as given in patent US20250179059A1 (The Regents of the University of California, priority 2021, published 2025).

Key:
[1] = test system: human SKM-1 acute myeloid leukemia cells; experiment: SKM-1 antiproliferation cell-based assay (ATPlite); details: Homo sapiens, SKM-1, 96 h, SKM-1 antiproliferation assay, 4 days, Table C2
Summary of the method: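 Log-phase cells in RPMI 1640/15% FBS were seeded at 34722 cells/mL and exposed for 4 days to nine-concentration DMSO serial dilutions in triplicate. Viability was read as ATP luminescence (ATPlite 1step), and IC50 values came from variable-slope non-linear regression.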

[2] = biological target: T1, human BRD4 bromodomain II (Homo sapiens, UniProt O60885); experiment: Bromodomain binding assay (AlphaScreen), BRD4 BDII; details: AlphaScreen assay, Table C2; read-out: BRD4 BDII IC50
T1 construct: human BRD4 bromodomain II [based on Genbank NM_058243, residues 349-460]; host or cells: E. coli
Summary of the method: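 E. coli-expressed N-terminal His6-tagged human BRD4 BDII (residues 349-460) or BDI (residues 44-170) was preincubated 30 min at room temperature with compound (10-point, 3-fold) in pH 7.5 HEPES buffer, 1% DMSO. Displacement of biotinylated tetra-acetylated H4 1-21 peptide was read by AlphaScreen, and IC50 came from curve fitting.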

Row | Compound | GI50 [1] [nM] | IC50 [2] [nM]
1 | CN1CCC2CN(c3cc(-c4cc(F)cc(-c5ccc(-n6ccn(C)c6=O)c(Cl)c5)c4O)ccn3)CC21 (stereo not drawn) [Example 658, 1-(3-chloro-5′-fluoro-2′-hydroxy-3′-(2-(1-methylhexahydropyrrolo[3,4-b]pyrrol-5(1H)-yl)pyridin-4-yl)-[1,1′-biphenyl]-4-yl)-3-methyl-1H-imidazol-2(3H)-one] | 0.3 to 30 | 0.01 to 1
2 | CN1CC2CN(c3cc(-c4cc(F)cc(-c5ccc(-n6ccn(C)c6=O)c(Cl)c5)c4O)ccn3)CC21 (stereo not drawn) [Example 659, 1-(3-chloro-5′-fluoro-2′-hydroxy-3′-(2-(6-methyl-3,6-diazabicyclo[3.2.0]heptan-3-yl)pyridin-4-yl)-[1,1′-biphenyl]-4-yl)-3-methyl-1H-imidazol-2(3H)-one] | 0.3 to 30 | 0.01 to 1
3 | COCCCn1cc(-c2cc(F)cc(-c3ccc(-n4ccn(C)c4=O)c(Cl)c3)c2O)cc(N2CCN[C@H](C)C2)c1=O [Example 660, (R)-5-(3′-chloro-5-fluoro-2-hydroxy-4′-(3-methyl-2-oxo-2,3-dihydro-1H-imidazol-1-yl)-[1,1′-biphenyl]-3-yl)-1-(3-methoxypropyl)-3-(3-methylpiperazin-1-yl)pyridin-2(1H)-one] | 30 to 300 | 0.01 to 1
4 | CC(C)N1CCN(c2cc(-c3cc(F)cc(-c4ccc(-n5ccn(C)c5=O)c(Cl)c4)c3O)cn(C)c2=O)CC1 [Example 661, 5-(3′-chloro-5-fluoro-2-hydroxy-4′-(3-methyl-2-oxo-2,3-dihydro-1H-imidazol-1-yl)-[1,1′-biphenyl]-3-yl)-3-(4-isopropylpiperazin-1-yl)-1-methylpyridin-2(1H)-one] | 0.3 to 30 | 0.01 to 1
5 | Cn1ccn(-c2ccc(-c3cc(F)cc(-c4ccnc(N5CCN(C67CC(C6)C7)CC5)c4)c3O)cc2Cl)c1=O [Example 662, 1-(3′-(2-(4-(bicyclo[1.1.1]pentan-1-yl)piperazin-1-yl)pyridin-4-yl)-3-chloro-5′-fluoro-2′-hydroxy-[1,1′-biphenyl]-4-yl)-3-methyl-1H-imidazol-2(3H)-one] | 30 to 300 | 1 to 10
6 | CC(C)N1CCN(c2cncc(-c3cc(F)cc(-c4ccc(-n5ccn(C)c5=O)c(Cl)c4)c3O)c2)CC1 [Example 663, 1-(3-chloro-5′-fluoro-2′-hydroxy-3′-(5-(4-isopropylpiperazin-1-yl)pyridin-3-yl)-[1,1′-biphenyl]-4-yl)-3-methyl-1H-imidazol-2(3H)-one] | 0.3 to 30 | 0.01 to 1
7 | Cn1ccn(-c2ccc(-c3cc(F)cc(-c4cncc(N5CCN(C(C)(C)C)CC5)c4)c3O)cc2Cl)c1=O [Example 664, 1-(3′-(5-(4-(tert-butyl)piperazin-1-yl)pyridin-3-yl)-3-chloro-5′-fluoro-2′-hydroxy-[1,1′-biphenyl]-4-yl)-3-methyl-1H-imidazol-2(3H)-one] | 0.3 to 30 | 0.01 to 1
8 | Cn1ccn(-c2ccc(-c3cc(F)cc(-c4ccnc(N5CCNCCC5=O)c4)c3O)cc2Cl)c1=O [Example 665, 4-(4-(3′-chloro-5-fluoro-2-hydroxy-4′-(3-methyl-2-oxo-2,3-dihydro-1H-imidazol-1-yl)-[1,1′-biphenyl]-3-yl)pyridin-2-yl)-1,4-diazepan-5-one] | 30 to 300 | 0.01 to 1
9 | COC[C@@H]1CN(c2cc(-c3cc(F)cc(-c4ccc(-n5ccn(C)c5=O)c(Cl)c4)c3O)ccn2)CCN1 [Example 666, (S)-1-(3-chloro-5′-fluoro-2′-hydroxy-3′-(2-(3-(methoxymethyl)piperazin-1-yl)pyridin-4-yl)-[1,1′-biphenyl]-4-yl)-3-methyl-1H-imidazol-2(3H)-one] | 0.3 to 30 | 0.01 to 1
10 | CC(C)[C@@H]1CN(c2cc(-c3cc(F)cc(-c4ccc(-n5ccn(C)c5=O)c(Cl)c4)c3O)ccn2)CCN1 [Example 667, (R)-1-(3-chloro-5′-fluoro-2′-hydroxy-3′-(2-(3-isopropylpiperazin-1-yl)pyridin-4-yl)-[1,1′-biphenyl]-4-yl)-3-methyl-1H-imidazol-2(3H)-one] | 0.3 to 30 | 0.01 to 1
11 | Cn1cc(-c2cc(F)cc(-c3ccc(-n4ccn(C)c4=O)c(Cl)c3)c2O)cc(N2CCN(C(C)(C)C)CC2)c1=O [Example 668, 3-(4-(tert-butyl)piperazin-1-yl)-5-(3′-chloro-5-fluoro-2-hydroxy-4′-(3-methyl-2-oxo-2,3-dihydro-1H-imidazol-1-yl)-[1,1′-biphenyl]-3-yl)-1-methylpyridin-2(1H)-one] | 0.3 to 30 | 0.01 to 1
12 | C#CCN1CCN(c2cc(-c3cc(F)cc(-c4ccc(-n5ccn(C)c5=O)c(Cl)c4)c3O)ccn2)CC1 [Example 669, 1-(3-chloro-5′-fluoro-2′-hydroxy-3′-(2-(4-(prop-2-yn-1-yl)piperazin-1-yl)pyridin-4-yl)-[1,1′-biphenyl]-4-yl)-3-methyl-1H-imidazol-2(3H)-one] | 30 to 300 | 0.01 to 1
13 | CC(C)N1CCN(c2cc(-c3cc(F)cc(-c4ccc(-n5ccn(C)c5=O)c(Cl)c4)c3O)cn3ccnc23)CC1 [Example 670, 1-(3-chloro-5′-fluoro-2′-hydroxy-3′-(8-(4-isopropylpiperazin-1-yl)imidazo[1,2-a]pyridin-6-yl)-[1,1′-biphenyl]-4-yl)-3-methyl-1H-imidazol-2(3H)-one] | 0.3 to 30 | 0.01 to 1
14 | C[C@@H]1CN(c2cccc(-c3cc(F)cc(-c4ccc(-n5ccn(C)c5=O)c(Cl)c4)c3O)c2)CCN1 [Example 671, (R)-1-(3-chloro-5′-fluoro-2′-hydroxy-3″-(3-methylpiperazin-1-yl)-[1,1′:3′,1″-terphenyl]-4-yl)-3-methyl-1H-imidazol-2(3H)-one] | 0.3 to 30 | 0.01 to 1
15 | CC(C)N1CCN(c2cc(-c3cc(F)cc(-c4ccc(-n5ccn(C)c5=O)c(Cl)c4)c3O)cc3c2cnn3C)CC1 [Example 672, 1-(3-chloro-5′-fluoro-2′-hydroxy-3′-(4-(4-isopropylpiperazin-1-yl)-1-methyl-1H-indazol-6-yl)-[1,1′-biphenyl]-4-yl)-3-methyl-1H-imidazol-2(3H)-one] | 0.3 to 30 | 0.01 to 1
16 | C[C@@H]1CN(c2cc(-c3cc(F)cc(-c4ccc(-n5ccn(C)c5=O)c(Cl)c4)c3O)ccn2)CCO1 [Example 673, (R)-1-(3-chloro-5′-fluoro-2′-hydroxy-3′-(2-(2-methylmorpholino)pyridin-4-yl)-[1,1′-biphenyl]-4-yl)-3-methyl-1H-imidazol-2(3H)-one] | 30 to 300 | 0.01 to 1
17 | Cn1ccn(-c2ccc(-c3cc(F)cc(-c4ccnc(N5CCC6(CCO6)C5)c4)c3O)cc2Cl)c1=O (stereo not drawn) [Example 674, 1-(3′-(2-(1-oxa-6-azaspiro[3.4]octan-6-yl)pyridin-4-yl)-3-chloro-5′-fluoro-2′-hydroxy-[1,1′-biphenyl]-4-yl)-3-methyl-1H-imidazol-2(3H)-one] | 30 to 300 | 0.01 to 1
18 | Cn1ccn(-c2ccc(-c3cc(F)cc(-c4ccnc(N5CCN6C(=O)OCCC6C5)c4)c3O)cc2Cl)c1=O (stereo not drawn) [Example 675, 2-(4-(3′-chloro-5-fluoro-2-hydroxy-4′-(3-methyl-2-oxo-2,3-dihydro-1H-imidazol-1-yl)-[1,1′-biphenyl]-3-yl)pyridin-2-yl)hexahydropyrazino[1,2-c][1,3]oxazin-6(2H)-one] | 30 to 300 | 0.01 to 1
